# Non-standard residues stand in square brackets, D forms with d. Residues, ends and D or L forms follow the SMILES beside them. *: point of attachment. Gly(N-(3-decanoyloxypropyl)) = CCCCCCCCCC(=O)OCCCNCC(=O)O; N(3-lauroyloxypropyl)Gly = CCCCCCCCCCCC(=O)OCCCNCC(=O)O; N(2-decanoyloxyethyl)Gly = CCCCCCCCCC(=O)OCCNCC(=O)O; N(3-imidazol-1-ylpropyl)Gly = O=C(O)CNCCCn1ccnc1; Gly(N-3-morpholinopropyl) = O=C(O)CNCCCN1CCOCC1; N(2-ethylhexyl)Gly = CCCCC(CC)CNCC(=O)O; Gly(N-dodecyl) = CCCCCCCCCCCCNCC(=O)O; N(CH(CH2OH)2)Gly = O=C(O)CNC(CO)CO; NHexGly = CCCCCCNCC(=O)O; For = O=C*
# Assays:
# [1] = Peptoid quantity remaining in liver by HPLC-TOF mass spectrometry; type: in vivo; details: liver homogenate
# Procedure: Peptoid quantity in liver was determined via high-performance liquid chromatography coupled with time-of-flight mass spectrometer (HPLC-TOF). The entire liver was weighed, and then two sections were isolated using a provided biopsy punch for liver homogenization. Liver homogenate sample was prepared by resuspending 20 mg liver tissue in 400 μL extraction solvent (IPA/MeOH=8/2) containing an internal standard (400 pg/μL) followed by bead homogenization (45 sec per cycle for 3-4 cycles). Homogenized samples were centrifuged at 12,000 rpm for 8 min at 6 °C. The resulting supernatant was collected and stored at −20 °C for further LC analysis. 5 μL of the resulting supernatant sample from solid or liquid tissue was injected into a BEH C8 column on an Agilent 1290 Infinity II liquid chromatograph coupled with an Agilent 6230 LC-TOF system. Concentrations of peptoids were determined by a linear calibration curve (linear range:0.2-50 μg/g for solid tissue). Standard calibration curve solutions were prepared by spiking untreated liver followed by homogenization and centrifugation.
# [2] = Delivery vehicle size and polydispersity by dynamic light scattering; type: physicochemical
# How it was run: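 LNPs made by microfluidic mixing of ethanolic peptoid/DSPC/cholesterol/DMG-PEG2000 (20:1.79:7.16:1.84 by weight) with mRNA in 10 mM citrate pH 5.0 at 1:3 by volume, then dialyzed overnight at 4 °C against tris-sucrose pH 7.4. Size and PDI read by dynamic light scattering in PBS.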
# firefly luciferase = assay: In vivo firefly luciferase expression after intravenous injection of fLuc mRNA delivery vehicles (IVIS imaging); design: species or system female Balb/c mice; details: for Total Flux (luciferase expression): fLuc mRNA, intravenous, Balb/c mice; for Total Flux: mice, 2.5 ug fLuc mRNA intravenously, 6 hours post-injection
# How it was run: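 Female Balb/c mice (6-8 weeks) given 2.5 ug fLuc mRNA in Nutshells IV. At 6 hours, IP D-luciferin (30 mg/mL, 10 μL/g) under isoflurane; IVIS imaging 10 minutes later, then harvested organs imaged ex vivo. Read-out: total photon flux in regions of interest.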
# hEPO = assay: Quantification of hEPO in serum after IV injection of mRNA (Human EPO ELISA); type: in vivo; details: Balb/c mice, 2.5 μg mRNA IV, serum after 6 hours
# Procedure: Balb/c mice were treated with 2.5 μg of mRNA coding for human erythropoiten via IV injection according to a similar method as in Example 4. hEPO protein in the serum was quantified after 6 hours using the Human EPO ELISA Kit from Invitrogen (catalog #BMS2035-2). Wash buffer (PBS with 1% tween 20) and assay buffer (PBS with 1% tween 20, 10% BSA) were prepared from a 20× concentrate with milli-Q water. Serum samples were diluted with PBS according to expected EPO concentration, with a 50× dilution for low expression samples and up to a 30,000× dilution for samples expected to have high expression. Microwell strips were washed in a plate washer with wash buffer and tapped on an absorbent pad to remove excess buffer. 100 μL of sample diluent were added to each well that will be used for the standard curve. 50 μL of sample diluent was added to each sample well.
# The standard curve was prepared by reconstituting the human erythropoietin standard by adding the volume of water listed on the vial label. Standard was swirled gently and allowed to reconstitute for 10 minutes prior to use, then 100 μL is added to standard wells and mixed well. 100 μL from standard wells were then transferred to sample wells and mixed well. This was repeated 5 times to produce 2 columns of standard dilutions from 100 to 1.6 mIU/mL. 100 μL was discarded from the last microwells. The final 2 wells contained 100 μL of sample diluent and served as a blank. An external standard was also included to facilitate a mIU/mL conversion to ng/mL. The same serial dilution method was repeated starting with the external standard at 6.25 ng/mL. Once the standards were added, 50 μL of each sample was added in duplicate to the sample wells. Next, the biotin-conjugate was prepared by diluting 1:100 in assay buffer. 50 μL of biotin-conjugate was added to all wells and the plate was covered with a plate seal and shaken at room temperature for 1 hour. During the last few minutes of shaking, streptavidin-HRP was prepared by diluting 1:100 in assay buffer. The plate was washed on a plate washer and tapped on an absorbent pad to remove remaining wash buffer.
# 100 μL of the diluted streptavidin-HRP was added to each well and the plate was sealed and shaken for 15 minutes at room temperature. After 15 minutes, the plate seal was removed and the plate was washed on a plate washer and remaining wash buffer tapped out on an absorbent pad. 100 μL of TMB substrate was added to all wells and the plate was incubated for 10 minutes at room temperature out of direct light. Color development was checked every few minutes and the assay was stopped when the highest standard was dark blue. The reaction was stopped by pipetting 100 μL of stop solution into each well. Immediately after stop solution was added, the plate was gently tapped to ensure the solution was mixed. Absorbance was then read at 450 nm for each well. A standard curve was plotted for both the kit-provided standards (mIU/mL) and the external standard (ng/mL) and fit using Prism. Sample absorbances that fell within the standard curve were interpolated and adjusted for dilution (including a 2× assay dilution). Samples that were not within the standard curve were repeated at an adjusted dilution.
# luciferase = assay: Luciferase expression after local (intramuscular or subcutaneous) administration of mRNA; type: in vivo; details: mRNA 0.01 mpk, 6 hours; for IM Flux: intramuscular; for SC Flux: subcutaneous
# How it was run: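 Female Balb/c mice (6-8 weeks) received fLuc mRNA in aminolipidated peptoid Nutshells at 0.01 mpk subcutaneously or intramuscularly, or 0.1 mpk intratumorally. At 6 hours, anesthetized mice were given D-luciferin IP and imaged 10 minutes later; harvested organs were also imaged and total photon flux quantified in regions of interest.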
# mRNA = mRNA encapsulation (modified Quant-iT RiboGreen assay); type: physicochemical; details: for mean percent encapsulation of RNA: RiboGreen, without vs with Triton X-100; for % Encapsulation: mRNA
# How it was run: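 Peptoid nanoparticles were incubated with Triton X-100 for 10 min to release entrapped mRNA, then mixed with RiboGreen reagent and read by fluorescence (ex 485 nm/em 530 nm). Percent encapsulation was derived from the ratio of fluorescence without versus with Triton X-100.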
# [3] = DLS in PBS, peptoid:DSPC:Cholesterol:DMG-PEG2000 weight ratio 20:1.79:7.16:1.84, mRNA
Structure (SMILES),% of injected dose remaining in liver [1],"PDI [2, 3]","Particle Size [2, 3]",Total Flux (firefly luciferase),hEPO (hEPO),IM Flux (luciferase),SC Flux (luciferase),mean percent encapsulation of RNA (mRNA),further results
CCCCCCCCCC(=O)OCCN(CC(=O)N(CCOC(=O)CCCCCCCCC)CC(=O)N(CC(=O)N(CCOC(=O)CCCCCCCCC)CC(=O)N(CCOC(=O)CCCCCCCCC)CC(=O)N(CC(N)=O)CC(CC)CCCC)CC(CC)CCCC)C(=O)CNC(CO)CO (stereo not shown) [Compound 16] (H-[N(CH(CH2OH)2)Gly][N(2-decanoyloxyethyl)Gly][N(2-decanoyloxyethyl)Gly][N(2-ethylhexyl)Gly][N(2-decanoyloxyethyl)Gly][N(2-decanoyloxyethyl)Gly][N(2-ethylhexyl)Gly]-NH2),6.65%,0.135,90.0 nm,9.70E+09 p/s,422 ng/mL,3.09E+08 p/s,5.62E+08 p/s,55.7%,Particle Size ([2]; formulation recipe F2): 71.0 nm; Particle Size ([2]; formulation recipe R1): 59.8 nm; Particle Size ([2]; formulation recipe R5): 57.2 nm; Particle Size ([2]; formulation recipe R7): 69.1 nm; Particle Size ([2]; formulation recipe R9): 59.0 nm; Total Flux (luciferase expression) (firefly luciferase; formulation recipe F2): 2.35E+09 p/s; Total Flux (luciferase expression) (firefly luciferase; formulation recipe R1): 5.73E+08 p/s; Total Flux (luciferase expression) (firefly luciferase; formulation recipe R5): 6.72E+08 p/s; Total Flux (luciferase expression) (firefly luciferase; formulation recipe R7): 1.81E+09 p/s; Total Flux (luciferase expression) (firefly luciferase; formulation recipe R9): 1.14E+09 p/s; % Encapsulation (mRNA; formulation recipe F2): 90.8%; % Encapsulation (mRNA; formulation recipe R1): 89.4%; % Encapsulation (mRNA; formulation recipe R5): 92.2%; % Encapsulation (mRNA; formulation recipe R7): 87.8%; % Encapsulation (mRNA; formulation recipe R9): 93.3%
CCCCCCCCCCCC(=O)OCCN(CC(=O)N(CCOC(=O)CCCCCCCCCCC)CC(=O)N(CC(=O)N(CCOC(=O)CCCCCCCCCCC)CC(=O)N(CCOC(=O)CCCCCCCCCCC)CC(=O)N(CC(N)=O)CC(CC)CCCC)CC(CC)CCCC)C(=O)CN(C=O)CCCN1CCOCC1 (stereo not shown) [Compound 65],14.67%,0.248,91.4 nm,8.68E+08 p/s,77.7 ng/mL,8.99E+08 p/s,2.00E+08 p/s,39.1%,
CCCCCCCCCC(=O)OCCCN(CC(N)=O)C(=O)CN(CCCOC(=O)CCCCCCCCC)C(=O)CN(CC(CC)CCCC)C(=O)CN(CCCOC(=O)CCCCCCCCC)C(=O)CN(CCCOC(=O)CCCCCCCCC)C(=O)CN(CC(CC)CCCC)C(=O)CNC(CO)CO (stereo not shown) [Compound 102] (H-[N(CH(CH2OH)2)Gly][N(2-ethylhexyl)Gly][Gly(N-(3-decanoyloxypropyl))][Gly(N-(3-decanoyloxypropyl))][N(2-ethylhexyl)Gly][Gly(N-(3-decanoyloxypropyl))][Gly(N-(3-decanoyloxypropyl))]-NH2),0.86%,0.123,97.8 nm,1.90E+09 p/s,207 ng/mL,2.12E+08 p/s,1.76E+08 p/s,47.1%,
CCCCCCCCCCCC(=O)OCCCN(CC(=O)N(CCCOC(=O)CCCCCCCCCCC)CC(=O)N(CCCCCC)CC(=O)N(CCCOC(=O)CCCCCCCCCCC)CC(=O)N(CCCOC(=O)CCCCCCCCCCC)CC(=O)N(CCCCCC)CC(N)=O)C(=O)CNCCCn1ccnc1 [Compound 73] (H-[N(3-imidazol-1-ylpropyl)Gly][N(3-lauroyloxypropyl)Gly][N(3-lauroyloxypropyl)Gly][NHexGly][N(3-lauroyloxypropyl)Gly][N(3-lauroyloxypropyl)Gly][NHexGly]-NH2),10.58%,0.289,111.2 nm,,27.8 ng/mL,5.36E+07 p/s,6.38E+07 p/s,66.2%,
CCCCCCCCCCCC(=O)OCCCN(C=O)CC(=O)N(CCCOC(=O)CCCCCCCCCCC)CC(=O)N(CC(=O)N(CCCN1CCOCC1)CC(=O)N(CCCOC(=O)CCCCCCCCCCC)CC(=O)N(CCCOC(=O)CCCCCCCCCCC)CC(=O)N(CC(N)=O)CC(CC)CCCC)CC(CC)CCCC (stereo not shown) [Compound 81] (For-[N(3-lauroyloxypropyl)Gly][N(3-lauroyloxypropyl)Gly][N(2-ethylhexyl)Gly][Gly(N-3-morpholinopropyl)][N(3-lauroyloxypropyl)Gly][N(3-lauroyloxypropyl)Gly][N(2-ethylhexyl)Gly]-NH2),6.17%,,,1.89E+08 p/s,52 ng/mL,2.11E+08 p/s,6.97E+07 p/s,,
CCCCCCCCCCCCN(C=O)CC(=O)N(CCCOC(=O)CCCCCCCCCCC)CC(=O)N(CC(=O)N(CCCn1ccnc1)CC(=O)N(CC(=O)N(CCCOC(=O)CCCCCCCCCCC)CC(=O)N(CCCCCCCCCCCC)CC(N)=O)CC(CC)CCCC)CC(CC)CCCC (stereo not shown) [Compound 85] (For-[Gly(N-dodecyl)][N(3-lauroyloxypropyl)Gly][N(2-ethylhexyl)Gly][N(3-imidazol-1-ylpropyl)Gly][N(2-ethylhexyl)Gly][N(3-lauroyloxypropyl)Gly][Gly(N-dodecyl)]-NH2),40.01%,0.102,81.1 nm,,26.3 ng/mL,5.99E+07 p/s,4.21E+07 p/s,0.0%,

# Reference: patent publication US20260373248A1, “DEGRADABLE PEPTOIDS” (Medici Therapeutics, Inc., priority 2023, published 2026)
